# Source: patent publication US20190142737A1, “SUBLINGUAL SPRAY FORMULATION COMPRISING DIHYDROARTEMESININ” (LondonPharma Ltd., priority 2009, published 2019)
# Where two headings read alike, the source gives them in different places.
# What was measured:
# [1] = Impurities of artemether in solvent systems after eight weeks storage (HPLC); type: physicochemical; conditions: in contact with water, ethanol, or propellants for aerosol formulations
# Description: Tables 1 and 2 show impurities present in Artemether API, and artemether in three solvent systems: 20% ethanol+80% propellant; 50% ethanol+50% propellant; 100% ethanol; and a medium chain triglyceride, in this case, the triglyceride sold under the registered trade mark Miglyol® 810. Miglyol® is a medium chain triglyceride containing saturated C8 and C10 fatty acids, typically between 65-80% of caprylic acid (C8:0) and 20-35% of capric acid (C10:0). The propellant used in these test was 1,1,1,2 tetrafluoroethane, sold under the registered trade mark Zephex® 134a. Similar results were obtained for the propellants butane, Zephex® 227 (1,1,1,2,3,3,3 heptafluoropropane) and for a mixture of butane and propane. […] In all other cases, the impurities are at levels that exceed those permitted under the ICH Harmonised Tripartite Guidelines for Impurities in New Drug Products without specific identification or further toxicological examination.
# [2] = animals, cited from earlier work
# [3] = humans, cited from earlier work
compound,measurement,setting,value
CO[C@H]1O[C@@H]2O[C@@]3(C)CC[C@H]4[C@H](C)CC[C@@H]([C@H]1C)[C@@]24OO3 [artemether],Stability of artemether (in words),[1],not stable
same,Bioavailability,[2]; intramuscular injection,54%
same,Bioavailability,[2]; oral administration,19-35%
same,Bioavailability,[3]; intramuscular route,25%
same,Bioavailability,[3]; intrarectal route,35%
